The values below come from patent US12630565B2, “DNA-dependent protein kinase inhibitor” (DIZAL (JIANGSU) PHARMACEUTICAL CO., LTD., priority 2019, dated 2026).

Data set [1] deals with Full length human DNAPK protein (Homo sapiens, UniProt P78527). The data set is described as follows: DNA-PK enzymatic assay (TR-FRET). The note with it: 10 μM ATP, 1.6 μM peptide substrate. The class given is biochemical. For orientation: Time-resolved FRET reads energy transfer from a long-lived donor to a nearby acceptor.
The test system of a further data set is MDR1, BCRP. Put plainly: MDCKII-MDR1-BCRP efflux assay. As to conditions: dog, pH 7.4, 5 μM compound, HBSS pH 7.4, read-out: MDCK-Mdr1-BCRP efflux ratio. In kind it is in vitro ADME. As to the method: The apical-to-basolateral (A-B) and basolateral-to-apical (B-A) transport of compound in HBSS (25 mM HEPES, pH 7.4) was measured across MDCKII-MDR1-BCRP cell monolayers. Incubations were performed at approximately 37° C. for 120 min, with functionality of the test system being confirmed using 5 μM digoxin as a positive control substrate. Transport of 5 μM compound and control compound were determined by quantifying substrate concentration in the incubation medium of donor compartment at the beginning of the incubation period, and both donor and receiver compartments at the end of the incubation period. The data was used to calculate the apparent permeability (Papp). All incubations were performed in triplicate and integrity of the cell monolayers was confirmed using the marker Lucifer yellow.
The permeability coefficient Pexact (cm/s) was calculated using the equation: […]
The Pexact ratio was calculated using the equation: […]
The efflux ratio was calculated using the equation: […]
Where dCr/dt is the cumulative concentration of compound in the receiver chamber as a function of time (μM/s); Vr is the solution volume in the receiver chamber (0.1 mL on the apical side, 0.3 mL on the basolateral side); A is the surface area for the transport, i.e. 0.11 cm2 for the area of the monolayer; CO is the initial concentration in the donor chamber (μM).

The next data set has as its system Rat hepatocyte. Put plainly: Metabolic stability assay (rat hepatocyte Clint). In kind it is in vitro ADME. The note with it: 1 μM compound, cryopreserved hepatocytes 1 million cells per mL. On the procedure:
Viability of cryopreserved hepatocytes was determined using trypan blue and the cell conc. was adjusted to […] with buffer. 1 μM compound (in Acetonitrile; 0.01% DMSO) was incubated with 250 μL of hepatocytecells (1 million cells per mL) in a 96 deep well plate. Reaction was stopped at different time points (0, 0.5, 5, 15, 30, 45, 60, 80, 100 and 120 min) by addition of 3 volumes of chilled acetonitrile to 20 μL of reaction mixture and centrifuged at 4° C. for 15 min. 40 μL of supernatant was diluted to 200 μL with pure water and analyzed using LC-MS/MS.
In vitro hepatocyte clearance was estimated based on determination of elimination half-life (T1/2) of compounds disappearance from their initial concentrations. Peak area ratios of each compound (test or control) to IS was calculated. Drug elimination rate constant k (min−1), T1/2 (min), and in vitro intrinsic clearance CLint (μL/min/E6) was calculated according to the following equations: […]
Where Chep (cells×μL^−1) is the cell concentration in the incubation system.

Data set [2] is described as follows: Metabolic stability assay (human microsomal Clint). The class given is in vitro ADME. The note with it: human, pooled human liver microsomes, pH 7.4, 1 μM compound, 1 mg/mL microsomes, 1 mM NADPH, 37° C. On the procedure:
1 μM compound was incubated with 1 mg/mL of microsomes (Pooled HLM with 20 mg/ml protein cone) at 37° C. in 250 μL of buffer (100 mM phosphate buffer, pH-7.4) containing 1 mM NADPH solution. 20 μL of incubation mix was quenched with 5 volumes chilled acetonitrile at different time points 0, 0.5, 5, 10, 15, 20 and 30 min in a fresh 96 well plate. The quench plate was centrifuged at 4000 rpm for 15 min. 40 μL of supernatant was diluted to 200 μL with pure water and analyzed using LC-MS/MS.
In vitro intrinsic clearance of the drugs in the microsome CLint (μl/min/mg) was calculated in the similar manner as the CLint in the hepatocyte.

The IC50 is the concentration at which inhibition is half-maximal. Low readings indicate greater potency in that assay, high ones weaker potency in that assay. What is called microsomal CLint is the capacity of the preparation to metabolise the compound, expressed as a volume cleared per time. In turn, `Cc1cc2ncnn2cc1Nc1ncc2c(C)nn([C@H]3C[C@@H](C)C3)c2n1` [Example 40, 3-methyl-N-(7-methyl-[1,2,4]triazolo[1,5-a]pyridin-6-yl)-1-((1s,3s)-3-methylcyclobutyl)-1H-pyrazolo[3,4-d]pyrimidin-6-amine] returned an IC50 in data set [1] of 4.2 nM. The efflux ratio at 120 min, 5 μM in the data set with MDR1, BCRP was 0.9. For the same compound, the “Rat hepatocyte CLint (μl/min/10^−6 cells)” value (“Rat hepatocyte CLint” below) with Rat hepatocyte is 144.4 μl/min/10^−6 cells. Moreover, in data set [2], the microsomal CLint at 1 μM is 125 µL/min/mg.
Taken in the same sequence, the figures for `Cc1cc2ncnn2cc1Nc1ncc2c(C)nn(C3COC3)c2n1` [Example 44, 3-methyl-N-(7-methyl-[1,2,4]triazolo[1,5-a]pyridin-6-yl)-1-(oxetan-3-yl)-1H-pyrazolo[3,4-d]pyrimidin-6-amine] were 24 nM, 4.3, 1.9 μl/min/10^−6 cells and 8.8 µL/min/mg.
For `Cc1cc2ncnn2cc1Nc1ncc2c(C)nn(C(C)C)c2n1` [Example 59, 1-isopropyl-3-methyl-N-(7-methyl-[1,2,4]triazolo[1,5-a]pyridin-6-yl)-1H-pyrazolo[3,4-d]pyrimidin-6-amine] the same measures were 4.5 nM, 0.7, 5.5 μl/min/10^−6 cells and 20.2 µL/min/mg.
For `Cc1cc2ncnn2cc1Nc1ncc2c(C)nn(C3CCOC(C)(C)C3)c2n1` (single isomer, unassigned) [Example 116, 1-(2,2-dimethyltetrahydro-2H-pyran-4-yl)-3-methyl-N-(7-methyl-[1,2,4]triazolo[1,5-a]pyridin-6-yl)-1H-pyrazolo[3,4-d]pyrimidin-6-amine] the same measures were 1.6 nM, 2, 9.6 μl/min/10^−6 cells and 71.1 µL/min/mg.
For `Cc1cc2ncnn2cc1Nc1ncc2c(C)nn(C3CCCCC3)c2n1` [Example 20, 1-cyclohexyl-3-methyl-N-(7-methyl-[1,2,4]triazolo[1,5-a]pyridin-6-yl)-1H-pyrazolo[3,4-d]pyrimidin-6-amine], in data set [1], the IC50 was found to be 1.3 nM. For the same compound, the efflux ratio at 120 min, 5 μM in the data set with MDR1, BCRP was found to be 0.8. Further, the “Rat hepatocyte CLint” value with Rat hepatocyte was 52.0 μl/min/10^−6 cells. The microsomal CLint at 1 μM in data set [2] was determined as 117 µL/min/mg.
The compound `Cc1cc2ncnn2cc1Nc1ncc2c(C)nn(CC3CC3)c2n1` [Example 38, 1-(cyclopropylmethyl)-3-methyl-N-(7-methyl-[1,2,4]triazolo[1,5-a]pyridin-6-yl)-1H-pyrazolo[3,4-d]pyrimidin-6-amine] gave an IC50 in data set [1] of 11.1 nM. Moreover, the efflux ratio at 120 min, 5 μM in the data set on MDR1, BCRP came to 1.4. Moreover, the “Rat hepatocyte CLint” value in the data set on Rat hepatocyte is recorded as 15.3 μl/min/10^−6 cells. For the same compound, in data set [2], the microsomal CLint at 1 μM was determined as 34.2 µL/min/mg.
For the compound `Cc1cc2ncnn2cc1Nc1ncc2c(C(F)(F)F)nn(C3CCOCC3)c2n1` [Example 17, N-(7-methyl-[1,2,4]triazolo[1,5-a]pyridin-6-yl)-1-(tetrahydro-2H-pyran-4-yl)-3-(trifluoromethyl)-1H-pyrazolo[3,4-d]pyrimidin-6-amine], the IC50 in data set [1] stood at 5.2 nM. Moreover, the efflux ratio at 120 min, 5 μM in the data set with MDR1, BCRP amounted to 1.5. In the data set with Rat hepatocyte, the “Rat hepatocyte CLint” value is given as 7.2 μl/min/10^−6 cells. The compound also registered a microsomal CLint at 1 μM in data set [2] of 54.7 µL/min/mg.
In data set [1], `Cc1cc2nccn2cc1Nc1ncc2c(C)nn(CC(C)C#N)c2n1` (centres unmarked) [Example 80, 2-methyl-3-(3-methyl-6-((7-methylimidazo[1,2-a]pyridin-6-yl)amino)-1H-pyrazolo[3,4-d]pyrimidin-1-yl)propanenitrile] yielded an IC50 of 2.1 nM. For the same compound, in the data set on MDR1, BCRP, the efflux ratio at 120 min, 5 μM worked out at 19. The “Rat hepatocyte CLint” value in the data set with Rat hepatocyte is reported as 9.3 μl/min/10^−6 cells. The compound also came in with a microsomal CLint at 1 μM in data set [2] of 23.5 µL/min/mg.
